# Source: patent US20170253607A1, “LONG-ACTING HIV PROTEASE INHIBITOR” (Shionogi & Co., Ltd., priority 2014, published 2017)
# Assays:
# [1] = target: HIV-1 PR (Human immunodeficiency virus type 1 group M subtype B, UniProt P04585); test: HIV-protease inhibitory activity assay (FRET peptide substrate); assay type: biochemical; settings: Test Example 1
# Procedure, shortened: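 Inhibition of HIV-1 protease was measured as loss of fluorescence dequenching of a HiLyte Fluor 488/QXL 520 peptide at 2 μmol/L, pH 4.8, room temperature, 60 minute reaction. IC50 was derived by nonlinear four-parameter fitting.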
# [2] = Protein binding test (equilibrium dialysis, unbound ratio fu in serum); assay type: in vitro ADME; settings: rat serum, equilibrium dialysis 24 hours, 37° C., 2 μg/mL
# Method: Assay condition: Evaluation method; Equilibrium dialysis method, Reaction time; 24 hours, Reaction temperature; 37° C., Assay concentration; 2 μg/mL A solution of the compound was added to each serum and mixed to prepare the serum samples with above concentration. The serum sample was put into one side of an equilibrium dialysis apparatus with dialysis membrane and phosphate buffered saline (PBS) was also put to another side of the apparatus. The apparatus was incubated at 37° C. for 24 hours. After incubation, the serum and PBS samples were collected and the compound concentrations in both samples were measured by LC/MS/MS. Fu was calculated by dividing the concentration in PBS by the concentration in the serum.
# [3] = Evaluation of total body clearance (CLtot), intravenous administration; assay type: in vivo, Sprague-Dawley (SD); settings: rat (SD), intravenous administration 0.5-10 mg/kg; CLtot = dose/AUC
# Procedure, shortened: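 Plasma levels quantified by LC/MS/MS after intravenous tail-vein dosing (0.5-10 mg/kg, compound-dependent; n=2-3). AUC from pharmacokinetic analysis; total clearance calculated as dose/AUC.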
Structure (SMILES),IC50 [1] [nM],rat_fu [2] [%],rat_CLt [3] [mL/min/kg]
COc1ccc(S(=O)(=O)N(CC(C)C)CC(O)C(Cc2ccc(CN(C)Cc3ccc(-c4sc5c(c4C(=O)O)CC(C)(C)CC5)cc3)cc2)NC(=O)OC2COC3(C)OCCC23)cc1 (stereo not drawn) [Compound I-267],2.4,<0.1,5.01
COc1ccc(S(=O)(=O)N(CC(C)C)CC(O)C(Cc2ccc(N(C)CC3=C(c4sc5c(c4C(=O)O)CC(C)(C)CC5)CCOC3)cc2)NC(=O)OC2COC3(C)OCCC23)cc1 (stereo not drawn) [Compound I-363],3.36,<0.1,3.39
COc1ccc(S(=O)(=O)N(CC(C)C)C[C@@H](O)[C@H](Cc2ccc(OCc3ccccc3-c3sc4c(c3C(=O)O)CC(C)(C)CC4)cc2)NC(=O)O[C@H]2CCO[C@H]3OCC[C@H]32)cc1 [Compound I-908],1.21,<0.1,0.63
COc1ccc(S(=O)(=O)N(CC(C)C)CC(O)C(Cc2ccc(OCc3ncccc3-c3sc4c(c3C(=O)O)CC(C)(C)CC4)cc2)NC(=O)OC2COC3OCCC23)cc1 (stereo not drawn) [Compound I-827],0.81,<0.1,4.21
COc1ccc(S(=O)(=O)N(CC(C)C)CC(O)C(Cc2ccc(NCc3cc(F)ccc3-c3sc4c(c3C(=O)O)CC(C)(C)CC4)cc2)NC(=O)OC2COC3(C)OCCC23)cc1 (stereo not drawn) [Compound I-271],2.23,<0.1,2.42
COc1ccc(S(=O)(=O)N(CC(C)C)CC(O)C(Cc2ccc(NCc3ccc(-c4sc5c(c4C(=O)O)CC(C)(C)CC5)cc3)cc2)NC(=O)OC2COC3(C)OCCC23)cc1 (stereo not drawn) [Compound I-253],2.59,<0.1,4.65
COc1ccc(S(=O)(=O)N(CC(C)C)CC(O)C(Cc2ccc(NCc3ccc(C)cc3-c3sc4c(c3C(=O)O)CC(C)(C)CC4)cc2)NC(=O)OC2COC3(C)OCCC23)cc1 (stereo not drawn) [Compound I-272],2.11,<0.1,0.715
COc1ccc(S(=O)(=O)N(CC(C)C)CC(O)C(Cc2ccc(OCc3ccccc3-c3sc4c(c3C(=O)O)CC(C)(C)CC4)cc2)NC(=O)OC2COC3(C)OCC(OCc4ccccc4)C23)cc1 (stereo not drawn) [Compound I-55],7.34,<0.1,0.752
COc1ccc(S(=O)(=O)N(CC(C)C)CC(O)C(Cc2ccc(N3CCC(Oc4ccccc4-c4sc5c(c4C(=O)O)CC(C)(C)CC5)C3)cc2)NC(=O)OC2COC3(C)OCCC23)cc1 (stereo not drawn) [Compound I-235],3.56,<0.1,4.05
COc1ccc(S(=O)(=O)N(CC(C)C)CC(O)C(Cc2ccc(NCC3(O)CCCC3c3sc4c(c3C(=O)O)CC(C)(C)CC4)cc2)NC(=O)OC2COC3(C)OCCC23)cc1 (stereo not drawn) [Compound I-334],1.91,<0.1,3.87
Cc1cc(Oc2ccc(CC(NC(=O)OC3COC4(C)OCCC34)C(O)CN(CC(C)C)S(=O)(=O)c3ccc4ncsc4c3)cc2)ccc1-c1sc2c(c1C(=O)O)CC(C)(C)CC2 (stereo not drawn) [Compound I-138],2.66,<0.1,1.6
CC1(C)CCc2sc(-c3ccccc3COc3ccc(CC(NC(=O)OC4COC5(C)OCCC45)C(O)CN(CC(F)F)S(=O)(=O)c4ccc5ncsc5c4)cc3)c(C(=O)O)c2C1 (stereo not drawn) [Compound I-147],1.01,<0.1,1.68
CCCCCN(Cc1ccccc1-c1sc2c(c1C(=O)O)CC(C)(C)CC2)c1ccc(CC(NC(=O)OC2COC3(C)OCCC23)C(O)CN(CC(C)C)S(=O)(=O)c2ccc(OC)cc2)cc1 (stereo not drawn) [Compound I-338],4.7,<0.1,5.7
CC(C)CN(CC(O)C(Cc1ccc(OCc2ccccc2-c2ccc3c(c2)C(=O)C(c2ccc(F)cc2)C3=O)cc1)NC(=O)OC1COC2(C)OCCC12)S(=O)(=O)c1ccc2ncsc2c1 (stereo not drawn) [Compound I-175],2,<0.1,4.44
